Test results reported in article PMC12528448, “Resistance to CDK7 inhibitors directed by acquired mutation of a conserved residue in cancer cells” (The EMBO Journal, 2025).
Where “and” joins values, the source holds several entries; their conditions need not be identical. Identical values can stand only once.

Assays:
[1] = tested on: LNCaP-CDK7-D97N cells; assay: Growth assay (SRB), LNCaP CDK7-D97N knock-in; assay type: cell-based, human; conditions: for % Growth: LNCaP CDK7 D99N
Method: (§1) To determine the IC50 of drug treatments on growth, cells were seeded in 96-well culture plates. Two days after seeding, the cells were treated with increasing concentrations of drugs and incubated for 4 days. Cell number was determined using the SRB assay (Skehan et al, [1990]), and IC50 values were calculated using non-linear regression curve fitting in GraphPad Prism v10. For all other growth experiments, cells were seeded into 96-well plates, and appropriate drugs were added 2 days after seeding. Cells were then incubated in an IncuCyte Zoom live-cell imager, with cell confluency measured every 6 h. Cell doubling times were determined by non-linear curve fitting (exponential growth equation) in GraphPad Prism v10.
Alt-R^TM S.p. Cas9 nuclease V3, Alt-R CRISPR-Cas9 crRNA, TracrRNA and the donor templates were obtained from Integrated DNA Technologies. […] Cells were treated with 0.7 µM of Alt-R HDR Enhancer V2 to improve HRD efficiency. Sequences of the CRISPRs in the crRNA and the donor templates are shown in the Reagents and tools table. Donor templates were designed to include non-coding substitutions to aid genome DNA PCR for identifying knock-in events and to facilitate cloning; these substitutions are noted in the Reagents and tools table.

[2] = molecular target: T1, CDK7-D97N (Homo sapiens, UniProt P50613, D97N); assay: NanoBRET Target Engagement assay, K-10 tracer displacement in HEK293 cells; assay type: binding; conditions: for % Occupacy: CDK7 D97N, replicates N1-N3
T1 construct: expressed in transfected cells; host or cells: HEK293
T1 sequence (P50613 whole entry D97N): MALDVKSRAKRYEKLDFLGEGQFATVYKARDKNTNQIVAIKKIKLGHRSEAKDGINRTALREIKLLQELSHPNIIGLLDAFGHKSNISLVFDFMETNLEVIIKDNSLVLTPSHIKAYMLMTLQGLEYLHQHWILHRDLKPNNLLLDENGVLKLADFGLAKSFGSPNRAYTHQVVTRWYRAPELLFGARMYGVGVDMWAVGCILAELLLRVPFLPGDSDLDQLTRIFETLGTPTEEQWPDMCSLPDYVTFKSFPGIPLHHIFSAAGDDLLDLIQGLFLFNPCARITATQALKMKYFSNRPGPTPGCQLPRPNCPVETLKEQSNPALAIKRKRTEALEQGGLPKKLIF
Method: (§2) Energy transfer between the NanoLuc fusion protein and a cell-permeable fluorescent energy transfer probe facilitates quantitative determination of target engagement in live cells (Wells et al, [2020]). Assays were conducted according to this previous report, using the optimal CDK7 probe, K-10, at a concentration of 0.5 µM.
(§3) CDK4, CDK6 and CDK7 and the respective mutant sequences, obtained as synthesised DNA fragments from IDT (Leuven), were cloned by HiFi DNA assembly (New England Biolabs) into the pNLF1-N NanoLuc protein fusion vector (Promega). HEK293 cells, transiently transfected with NanoLuc-CDK fusion constructs, were used for activity determination, utilising the NanoBRET Target Engagement Intracellular Kinase Assay. A CCND1 expression construct was co-transfected with the NanoLuc-CDK4 and NanoLuc-CDK6 fusion constructs. The recommended cell-permeable energy transfer probe, K-10, was used to assess target engagement, as detailed in the manufacturer’s methods (Promega). […] The BRET ratio (mBU) was calculated as acceptor emission (590–610 nm)/donor emission (410–490 nm) × 1000. The mBU values were plotted against the energy probe concentrations to determine maximal binding (Bmax) and Kd values. BRET signal competition by CDK inhibitors was used to determine compound binding to WT and mutant CDKs. […] Inhibitor binding was determined using a fourfold dilution series. mBU values were plotted against test compound concentrations in the presence of K10 tracer. EC50 values were determined using nonlinear regression curve-fitting. Test compound occupancy (%) was calculated using the equation [1 − (x − z)/(y − z)] × 100, where x = mBU in the presence of the test compound and K-10 tracer, y = mBU with K-10 tracer and vehicle control, and z = mBU in the absence of the K-10 tracer or test compound (Wells et al, [2020]).

[3] = molecular target: T2, CDK7-WT (Homo sapiens, UniProt P50613); assay: as above; assay type: binding; conditions: for % Occupacy: CDK7 WT, replicates N1-N3
T2 construct: expressed in transfected cells; host or cells: HEK293
T2 sequence (P50613 whole entry): as the sequence (P50613 whole entry D97N) above, with N97D counted along it
Method: as §2, §3

[4] = tested on: 22Rv1 cells; assay: Growth assay (SRB), 22Rv1; assay type: cell-based, human
Outline: (§4)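 Cells are seeded and, two days later, exposed to drug. The SRB endpoint follows 4 days of treatment across increasing doses and yields IC50 by nonlinear regression. The confluency assays instead monitor growth every 6 h and report doubling time from an exponential model.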

[5] = tested on: MCF7-CDK7-D97N cells; assay: Growth assay (SRB), MCF7 CDK7-D97N knock-in; assay type: cell-based, human; conditions: for % Growth: MCF7 CDK7 D99N, biological reps
Outline: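 CRISPR-Cas9 knock-in lines were treated with increasing drug concentrations two days after seeding, then grown 4 days. Cell number by SRB staining; IC50 from non-linear regression.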

[6] = tested on: 22Rv1-SamR cells; assay: Growth assay (SRB), Samuraciclib-resistant 22Rv1; assay type: cell-based, human; conditions: for % Growth: 22Rv1 SamR, 4 days, biological reps
Outline: as §4

[7] = tested on: LNCaP cells; assay: Growth assay (SRB), LNCaP; assay type: cell-based, human
Method: as §1

For CN(C)C/C=C/C(=O)Nc1ccc(C(=O)N[C@@]2(C)CCC[C@@H](Nc3ncc(Cl)c(-c4c[nH]c5ccccc45)n3)C2)nc1 [SY-1365], the “% Growth” value ([1]; Log10 Conc. (nM) 0.09) was 63.76% and 49.89%, the “% Growth” value ([1]; Log10 Conc. (nM) 0.69) was 29.39% and 16.32% and the “% Growth” value ([1]; Log10 Conc. (nM) 1.29) was 15.69% and 13.01%. The “% Growth” value ([1]; Log10 Conc. (nM) 1.89) was -2.84% and -7.62%, the “% Growth” value ([1]; Log10 Conc. (nM) 2.49) was -7.57% and -9.89% and the “% Growth” value ([1]; Log10 Conc. (nM) 3.10) was -8.80% and -12.02%. The “% Growth” value ([1]; Log10 Conc. (nM) 3.70) was -8.97%, the “% Growth” value ([1]; Log10 Conc. (nM) -0.52) was 95.67% and 71.20% and the “% Growth” value ([1]; Log10 Conc. (nM) -1.12) was 99.75% and 96.82%. For the same compound, the “% Growth” value ([1]; Log10 Conc. (nM) -1.72) was 90.05%, the “Sensitivity in growth assays” value ([1]; LNCaP-CDK7-D97N vs parental) was “remaining sensitive” and the EC50 ([2]; CDK7-D97N, K-10 0.5 µM, HEK293) was 31.3 nM. For the same compound, the “% Occupacy” value ([2]; Log10 Conc. (nM) 0.09) was 2.93% and 3.17% and -0.97%, the “% Occupacy” value ([2]; Log10 Conc. (nM) 0.69) was 10.17% and 10.16% and 4.41% and the “% Occupacy” value ([2]; Log10 Conc. (nM) 1.29) was 36.69% and 35.14% and 27.40%. The “% Occupacy” value ([2]; Log10 Conc. (nM) 1.89) was 86.86% and 82.26% and 69.03%, the “% Occupacy” value ([2]; Log10 Conc. (nM) 2.49) was 95.98% and 95.66% and 91.52% and the “% Occupacy” value ([2]; Log10 Conc. (nM) 3.10) was 98.50% and 98.01% and 96.95%. For the same compound, the “% Occupacy” value ([2]; Log10 Conc. (nM) 3.70) was 100.42% and 100.34% and 99.95%, the “% Occupacy” value ([2]; Log10 Conc. (nM) 4.30) was 97.72% and 96.80% and 96.75% and the “% Occupacy” value ([2]; Log10 Conc. (nM) -0.52) was -0.36% and 0.88% and 0.71%. The “% Occupacy” value ([2]; Log10 Conc. (nM) -1.12) was 3.66% and 1.72% and -0.86%, the “% Occupacy” value ([2]; Log10 Conc. (nM) -1.72) was 3.68% and 0.83% and -1.37% and the “Difference in EC50 values for mutant and WT CDK7” value ([2]; NanoBRET) was “no significant difference”. For the same compound, the EC50 ([3]; CDK7-WT, K-10 0.5 µM, HEK293) was 29 nM, the “% Occupacy” value ([3]; Log10 Conc. (nM) 0.09) was 5.29% and 2.02% and 1.09% and the “% Occupacy” value ([3]; Log10 Conc. (nM) 0.69) was 14.34% and 11.55% and 9.36%. The “% Occupacy” value ([3]; Log10 Conc. (nM) 1.29) was 40.53% and 32.34% and 29.30%, the “% Occupacy” value ([3]; Log10 Conc. (nM) 1.89) was 74.64% and 88.34% and 86.64% and the “% Occupacy” value ([3]; Log10 Conc. (nM) 2.49) was 98.27% and 99.01% and 95.02%. For the same compound, the “% Occupacy” value ([3]; Log10 Conc. (nM) 3.10) was 99.51% and 100.88% and 97.39%, the “% Occupacy” value ([3]; Log10 Conc. (nM) 3.70) was 102.75% and 104.94% and 102.49% and the “% Occupacy” value ([3]; Log10 Conc. (nM) 4.30) was 86.99% and 86.89% and 86.73%. For the same compound, the “% Occupacy” value ([3]; Log10 Conc. (nM) -0.52) was 10.37% and -0.26% and 2.09%, the “% Occupacy” value ([3]; Log10 Conc. (nM) -1.12) was 9.68% and 0.78% and 5.84% and the “% Occupacy” value ([3]; Log10 Conc. (nM) -1.72) was 8.54% and -2.37% and 7.63%. The “% Growth” value ([4]; 22Rv1, Log10 Conc. (nM) 0.09) was 53.71% and 72.88%, the “% Growth” value ([4]; 22Rv1, Log10 Conc. (nM) 0.69) was 19.90% and 19.70% and the “% Growth” value ([4]; 22Rv1, Log10 Conc. (nM) 1.29) was 16.91% and 19.74%. For the same compound, the “% Growth” value ([4]; 22Rv1, Log10 Conc. (nM) 1.89) was -7.92% and -2.43%, the “% Growth” value ([4]; 22Rv1, Log10 Conc. (nM) 2.49) was -5.73% and -3.13% and the “% Growth” value ([4]; 22Rv1, Log10 Conc. (nM) 3.10) was 1.12%. For the same compound, the “% Growth” value ([4]; 22Rv1, Log10 Conc. (nM) 3.70) was -11.26%, the “% Growth” value ([4]; 22Rv1, Log10 Conc. (nM) -0.52) was 94.30% and 92.75% and the “% Growth” value ([4]; 22Rv1, Log10 Conc. (nM) -1.12) was 97.77% and 104.48%. For the same compound, the “% Growth” value ([4]; 22Rv1, Log10 Conc. (nM) -1.72) was 103.08%, the “% Growth” value ([4]; 22Rv1, Log10 Conc. (nM) 0.09, 4 days, biological reps) was 64.96% and 59.63% and the “% Growth” value ([4]; 22Rv1, Log10 Conc. (nM) 0.69, 4 days, biological reps) was 28.69% and 25.19%. For the same compound, the “% Growth” value ([4]; 22Rv1, Log10 Conc. (nM) 1.29, 4 days, biological reps) was 21.21% and 16.89%, the “% Growth” value ([4]; 22Rv1, Log10 Conc. (nM) 1.89, 4 days, biological reps) was 0.26% and -4.14% and the “% Growth” value ([4]; 22Rv1, Log10 Conc. (nM) 2.49, 4 days, biological reps) was 1.87% and -4.53%. For the same compound, the “% Growth” value ([4]; 22Rv1, Log10 Conc. (nM) 3.10, 4 days, biological reps) was -0.83% and -4.41%, the “% Growth” value ([4]; 22Rv1, Log10 Conc. (nM) 3.70, 4 days, biological reps) was 0.68% and -4.68% and the “% Growth” value ([4]; 22Rv1, Log10 Conc. (nM) -0.52, 4 days, biological reps) was 89.73% and 90.72%. For the same compound, the “% Growth” value ([4]; 22Rv1, Log10 Conc. (nM) -1.12, 4 days, biological reps) was 93.97% and 90.45%, the “Resistance (Fold)” value ([5]; MCF7-CDK7-D97N vs MCF7 WT) was 0.19 fold and the IC50 ([5]; MCF7-CDK7-D97N, 4 days, SRB) was 0.17 nM. The “% Growth” value ([5]; Log10 Conc. (nM) 3.70, 4 days) was -16.61%, the “% Growth” value ([5]; Log10 Conc. (nM) -1.12, 4 days) was 78.15% and 70.71% and 82.37% and 82.39% and the “% Growth” value ([5]; Log10 Conc. (nM) -1.72, 4 days) was 83.93% and 103.71% and 98.90%. For the same compound, the “Sensitivity in growth assays” value ([6]; 22Rv1-SamR) was “remained sensitive”, the “Resistance (Fold), fold increase in IC50 of 22Rv1-SamR relative to 22Rv1” value ([6]; 22Rv1-SamR vs 22Rv1) was 1.0 fold and the “% Growth” value ([6]; Log10 Conc. (nM) 0.09) was 50.67% and 45.27%. The “% Growth” value ([6]; Log10 Conc. (nM) 0.69) was 34.60% and 27.89%, the “% Growth” value ([6]; Log10 Conc. (nM) 1.29) was 26.06% and 19.62% and the “% Growth” value ([6]; Log10 Conc. (nM) 1.89) was -2.71% and -9.74%. For the same compound, the “% Growth” value ([6]; Log10 Conc. (nM) 2.49) was -0.26% and -8.99%, the “% Growth” value ([6]; Log10 Conc. (nM) -0.52) was 81.58% and 73.70% and the “% Growth” value ([6]; Log10 Conc. (nM) -1.12) was 90.71% and 90.62%. For the same compound, the “% Growth” value ([7]; Log10 Conc. (nM) 0.09) was 56.73% and 37.69%, the “% Growth” value ([7]; Log10 Conc. (nM) 1.29) was 1.68% and -7.82% and the “% Growth” value ([7]; Log10 Conc. (nM) 2.49) was -22.61% and -22.62%. For the same compound, the “% Growth” value ([7]; Log10 Conc. (nM) 3.70) was -23.75%, the “% Growth” value ([7]; Log10 Conc. (nM) -0.52) was 84.52% and 77.18% and the “% Growth” value ([7]; Log10 Conc. (nM) -1.12) was 86.80% and 137.61%. The “% Growth” value ([7]; Log10 Conc. (nM) -1.72) was 105.02%.
